Consider 39 compounds from ChEMBL document CHEMBL4715852, “Advances in the Design of Genuine Human Tyrosinase Inhibitors for Targeting Melanogenesis and Related Pigmentations” (J Med Chem, 2020).

Each structure is given as a SMILES string. pIC50, pKi: −log10 of the molar value.

Assay [1] addresses T1, Tyrosinase (Homo sapiens, UniProt P14679).
T1 sequence (P14679 whole entry): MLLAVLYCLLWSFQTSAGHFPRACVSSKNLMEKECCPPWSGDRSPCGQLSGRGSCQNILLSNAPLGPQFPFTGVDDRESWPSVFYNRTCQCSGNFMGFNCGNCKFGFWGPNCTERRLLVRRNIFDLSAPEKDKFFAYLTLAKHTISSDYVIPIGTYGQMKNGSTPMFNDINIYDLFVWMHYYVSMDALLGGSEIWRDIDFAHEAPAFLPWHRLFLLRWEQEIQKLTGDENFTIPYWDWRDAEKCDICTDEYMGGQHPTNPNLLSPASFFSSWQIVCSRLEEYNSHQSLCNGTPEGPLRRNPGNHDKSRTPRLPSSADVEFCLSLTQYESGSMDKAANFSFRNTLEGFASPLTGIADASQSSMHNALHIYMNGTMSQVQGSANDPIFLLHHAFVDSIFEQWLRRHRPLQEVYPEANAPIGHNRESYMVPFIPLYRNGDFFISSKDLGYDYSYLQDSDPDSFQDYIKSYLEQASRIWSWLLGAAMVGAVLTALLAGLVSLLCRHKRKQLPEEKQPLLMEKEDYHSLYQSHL
In words: Inhibition of tyrosinase in human neonatal foreskin epidermal melanocyte cells using L-DOPA as substrate preincubated for 24 hrs followed by cell lysis and subsequent substrate addition and measured after 1 hr by ELISA. The format is cell-based. A general note: In an ELISA, binding on a coated surface is turned into a signal by an enzyme label.

The target in assay [2] is T1, Tyrosinase. In words: Inhibition of human tyrosinase using L- DOPA as substrate by MBTH based assay.
The target in assay [3] is T1, Tyrosinase. In words: Inhibition of human tyrosinase expressed in Escherichia coli.
For assay [4], the target named is T1, Tyrosinase. In words: Inhibition of tyrosinase in neonatal human epidermal melanocytes. Also noted: species or system Melanocyte.
For assay [5], the target named is T1, Tyrosinase. In words: Inhibition of human tyrosinase expressed in HEK293 cells. It is filed as cell-based.
The target in assay [6] is T1, Tyrosinase. In words: Inhibition of tyrosinase in human melanocytes using L-[3,5-3H]-tyrosine as substrate incubated for 1 to 3 days by liquid scintillation counting method. It is filed as cell-based, Melanocyte.
In assay [7] the target is T1, Tyrosinase. In words: Mixed inhibition of recombinant human tyrosinase expressed in baculovirus infected sf9 cells using L-DOPA as substrate by double-reciprocal plot analysis.
Assay [8] concerns the target T2, Mushroom tyrosinase (Agaricus bisporus, UniProt O42713+Q00024+C7FF04+C7FF05).
Description: Competitive inhibition of White button mushroom tyrosinase using L-DOPA as substrate by Lineweaver-Burk plot
Assay [9] concerns the target T1, Tyrosinase. In words: Inhibition of tyrosinase in human neonatal foreskin epidermal melanocyte cells using L-tyrosine and L-DOPA as substrate preincubated for 2 days followed by cell lysis and subsequent substrate addition and measured after 3 hr by spectrophotometric method. It is filed as cell-based.
For assay [10], the target named is T1, Tyrosinase. In words: Inhibition of human tyrosinase expressed in human SKMEL188 cell lysate using L- DOPA as substrate incubated for 8 hrs. The format is subcellular, SK-MEL-188.
Assay [11] addresses T1, Tyrosinase. In words: Inhibition of human His-tagged tyrosinase expressed in HEK 293 cells using L-DOPA as substrate by Lineweaver-Burk plot analysis. Also noted: species or system HEK293.
The target in assay [12] is T2, Mushroom tyrosinase. In words: Inhibition of mushroom tyrosinase using L-tyrosine as substrate by spectrophotometric method.
The target in assay [13] is T1, Tyrosinase. In words: biochemical.
Description: Inhibition of human His-tagged tyrosinase expressed in HEK 293 cells using L-DOPA as substrate by MBTH based assay
Assay [14] has as its target T1, Tyrosinase. In words: Inhibition of human tyrosinase expressed in HEK293 cells using L-tyrosine as substrate and DOPA as cofactor by indirect spectrophotometric method. It is filed as cell-based.
For assay [15], the target named is T2, Mushroom tyrosinase. In words: Inhibition of mushroom tyrosinase.
Assay [16] has as its target T1, Tyrosinase. In words: Inhibition of human HMV-II cell derived tyrosinase using L-DOPA as substrate by light absorbance method. The format is cell-based, HMV-2 cell line.
For assay [17], the target named is T1, Tyrosinase. In words: Inhibition of human HMV-II cell derived tyrosinase using DOPA as substrate incubated for 5 mins by light absorbance method. Also noted: species or system HMV-2 cell line.
Assay [18] concerns the target T1, Tyrosinase. In words: Inhibition of tyrosinase in human melanocyte cells using L-DOPA as substrate by absorbance method. It is filed as cell-based.

As a reminder, the pIC50 is −log10 of the IC50, conventionally taken in molar units. Low values mean a large IC50, high ones a small IC50. Compound `COc1cc(/C=C\C(=O)NCCCCNC(=O)/C=C/c2ccc(O)c(OC)c2)ccc1O` showed a pIC50 in assay [1] of 4.07.
As a reminder, the pKi is −log10 of the Ki, conventionally taken in molar units. `CCCSCc1cc(=O)c(O)co1` had a pKi in assay [2] of 4.57.
In the case of `O=c1oc2ccccc2cc1O` [3-HYDROXYCOUMARIN], the pKi in assay [3] was 5.47.
`O=C(O)/C=C/c1ccc(O)cc1` [COUMARIC ACID]: the pIC50 in assay [4] and in assay [5] was 5.70 throughout.
`CC(C)SCc1cc(=O)c(O)co1`: the pKi in assay [2] was 4.30.
Turning to `Nc1nc(-c2ccc(O)cc2O)cs1`, in assay [2], the pIC50 is 4.29.
In the case of `CC(C)(C)c1ccc(O)cc1`, in assay [6], the pIC50 was 5.00.
In turn, `CC(=O)Nc1nc(-c2ccc(O)cc2O)cs1` had a pIC50 in assay [2] of 5.49.
The term Ki denotes the equilibrium dissociation constant of an inhibitor or competing ligand from its target. Read a low Ki as a stronger hold on the target. `O=C(O)c1ccccc1` [BENZOIC ACID]: in [7], the pKi is 3.28. Also, the Ki in [8] was 4.6 µM.
With `Oc1ccc(-c2csc(Nc3ncccn3)n2)c(O)c1`, in [2], the pIC50 was 5.49.
With `CSCc1cc(=O)c(O)co1`, in assay [2], the pKi is 4.34.
For the compound `O=C(CCc1ccc(O)c(O)c1)c1c(O)cc(O)cc1O`, in assay [1], the pIC50 is 4.49.
Regarding `CCSCc1cc(=O)c(O)co1`, the pKi in assay [2] is 4.72.
Compound `CCCCCSCc1cc(=O)c(O)co1` showed a pKi in assay [2] of 4.34.
Consider `O=C(/C=C/c1ccc(O)cc1)OC1=C(O)[C@@H]([C@H](O)CO)OC1=O`, for which the negative logarithm of the IC50 (pIC50) in [5] is 4.40.
With `COc1cc(/C=C/C(=O)NCCc2ccc(O)c(O)c2)ccc1O` [N-TRANS-FERULOYLDOPAMINE], the pIC50 in [4] was 4.30.
With `O=C(Nc1nc(-c2ccc(O)cc2O)cs1)C1CCCCC1`, the pIC50 in [2] was 5.34.
The compound `CCCCCCCCCCCCC/C=C1\C(=O)O[C@@](C)(OC)[C@@H]1O` [SUBAMOLIDE A] had a pIC50 in assay [9] of 6.00.
With `O=C(Nc1nc(-c2ccc(O)cc2O)cs1)c1ccccc1`, the pIC50 in assay [2] is 5.60.
The same measure, in the same setting: in the case of `O=C(O)c1ccc(Nc2nc(-c3ccc(O)cc3O)cs2)cc1` it was 5.59; in that of `CC(C)(C)C(=O)Nc1nc(-c2ccc(O)cc2O)cs1`, 5.85.
In assay [10], `N[C@H](Cc1ccccc1)C(=O)O[C@H]1CC[C@H](c2ccc(O)cc2O)CC1` had a pIC50 of 5.70.
Broadly, the IC50 is the midpoint of a concentration-inhibition curve. Low readings indicate higher potency, high ones lower potency. In turn, `CCCCCCc1ccc(O)cc1O` [HEXYLRESORCINOL] showed a pKi in assay [11] of 4.41. Also, the IC50 in assay [12] was found to be 1.2 µM. In addition, in [13], the pIC50 is 4.03.
Compound `O=c1cc(-c2ccc(O)c(O)c2)oc2cc(OS(=O)(=O)O)cc(O)c12` showed a pIC50 in [14] of 4.80.
As to `O=c1cc(-c2ccc(O)c(O)c2)oc2cc(O)cc(O)c12` [LUTEOLIN], the pIC50 in [14] was 4.22.
Compound `Oc1ccc(/C=C/c2cc(O)cc(O)c2)cc1` [RESVERATROL] had a pIC50 in assay [5] of 5.05.
Regarding `Oc1cccc(O)c1` [RESORCINOL], the pIC50 in [13] was less than 2.52.
`O=C(Nc1nc(-c2ccc(O)cc2O)cs1)c1ccc(CO)cc1` gave a pIC50 in assay [2] of 5.80.
For `COc1ccc(CCCc2ccc(O)cc2O)c(OC)c1C`, the IC50 in [15] is 0.24 µM.
Consider `O=C(/C=C/c1ccc(O)cc1)OC1=C(O)C(=O)O[C@@H]1[C@H](O)CO`, for which the pIC50 in assay [5] is 5.00.
The compound `COC1=CC(=C/C=C/C=C2C=C(OC)C(=O)C(OC)=C2)C=C(OC)C1=O` showed a pIC50 in assay [16] of 5.60.
In [17], `Oc1ccc2cc[nH]c2c1` had a pIC50 of 4.66.
The compound `CC(C)C(=O)Nc1nc(-c2ccc(O)cc2O)cs1` gave a pKi in assay [11] of 6.60. The same compound had a pIC50 in assay [13] of 5.96.
In the case of `CC(c1ccccc1)c1ccc(O)cc1O` (configuration not stated), the pKi in assay [11] was 4.62. Further, the IC50 in assay [12] was 0.3 µM. In [13], this compound showed a pIC50 of 3.88.
For `C=C1OC(=O)/C(=C\CCCCCCCCCCCCC)[C@H]1O`, the pIC50 in assay [9] is 6.00.
With `CCCn1cc(O)c(=O)cc1C`, in assay [2], the pKi was 4.12.
The compound `CCCCc1ccc(O)cc1O` [RUCINOL] showed a pKi in [11] of 5.04. The compound further had an IC50 in assay [15] of 0.6 µM.
`CCCCn1cc(O)c(=O)cc1C` showed a negative logarithm of the Ki (pKi) in assay [2] of 4.00.
With `COc1cc(/C=C/C(=O)CC(=O)/C=C/c2ccc(O)c(OC)c2)ccc1O` [CURCUMIN], the pIC50 in assay [18] was 5.30.
